Where a name gives a salt, the structure may show the parent alone.
Biological target: T1, brain acetylcholinesterase (AChE) (Rattus norvegicus, UniProt P37136)
T1 construct: corpora striata dissected free, weighed and homogenized in 19 volumes; from tissue; host or cells: corpora striata of male Wistar rats, whole homogenate
T1 sequence (P37136 32-614): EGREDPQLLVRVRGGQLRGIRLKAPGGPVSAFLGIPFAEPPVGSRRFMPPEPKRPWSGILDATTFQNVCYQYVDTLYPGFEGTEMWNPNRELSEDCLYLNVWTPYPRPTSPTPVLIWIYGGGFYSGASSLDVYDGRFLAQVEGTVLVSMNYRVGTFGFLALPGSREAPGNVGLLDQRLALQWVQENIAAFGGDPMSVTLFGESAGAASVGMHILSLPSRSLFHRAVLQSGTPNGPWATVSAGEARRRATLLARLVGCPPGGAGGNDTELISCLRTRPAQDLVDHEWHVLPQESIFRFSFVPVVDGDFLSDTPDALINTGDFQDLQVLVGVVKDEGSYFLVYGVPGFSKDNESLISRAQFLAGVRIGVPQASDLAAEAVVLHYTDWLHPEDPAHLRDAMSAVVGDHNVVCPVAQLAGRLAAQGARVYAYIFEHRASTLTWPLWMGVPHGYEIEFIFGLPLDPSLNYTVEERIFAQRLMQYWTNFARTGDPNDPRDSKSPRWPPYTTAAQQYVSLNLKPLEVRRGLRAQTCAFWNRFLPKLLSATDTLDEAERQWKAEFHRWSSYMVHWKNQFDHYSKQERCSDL
Assay: In Vitro Inhibition of Acetylcholinesterase Activity in Rat Striatum
Assay type: biochemical, rat (male Wistar)
Description: Cholinesterases are found throughout the body, both in the brain and in serum. However, only brain acetylcholinesterase (AChE) distribution is correlated with central cholinergic innervation. […] We have determined in vitro inhibition of acetylcholinesterase activity in rat striatum according to the method described below.
The method described below was used in this invention for assaying anticholinesterase activity.
1. 0.05M Phosphate buffer, pH 7.2
(c) add (a) to (b) until pH reaches 7.2
(a) 9.9 mg 5,5-dithiobisnitrobenzoic acid (DTNB) (0.25 mM)
(b) 99 mg s-acetylthiocholine chloride (5 mM)
(c) q.s. to 100 ml with 0.05M phosphate buffer, pH 7.2 (reagent 1)
Male Wistar rats are decapitated, brains rapidly removed, corpora striata dissected free, weighed and homogenized in 19 volumes (approximately 7 mg protein/ml) of 0.05M phosphate buffer, pH 7.2 using a Potter-Elvehjem homogenizer. […]
Using the indicated instrument settings the ABA-100 automatically reads the color reaction and prints out the results in enzyme units after 15 minutes.
2. The enzyme activity can also be measured with a Gilford 250 spectrophotometer. […]
The uninhibited activity of the enzyme (tissue homogenate) is first determined. […] The reaction rate is determined by the slope of the recorded absorbance change. The actual rate (moles/liter/min) can be calculated as described in the following formula

**Q.** For `CN1CCC2CC1N(C)c1ccc(OC(=O)NC3CCCCC3)cc12` (centres unmarked) [1,2,3,4,5,6-Hexahydro-1,3-dimethyl-2,6-methano-1,3-benzodiazocin-8-ol, cyclohexyl carbamate], which IC50 is on record?
**A.** Its IC50 is 10.7 µM.

**Q.** `CNC(=O)Oc1ccc2c(c1)C1CCN(C)C(C1)N2C` (centres unmarked) [1,2,3,4,5,6-Hexahydro-1,3-dimethyl-2,6-methano-1,3-benzodiazocin-8-ol, methyl carbamate fumarate] was tested. Which IC50 did it give?
**A.** Its IC50 is 0.058 µM.

— patent US5010083A, “2,6-methano-1,3-benzodiazocine compounds which have useful pharmaceutical utility” (priority 1989, dated 1991)
